The results in this text go back to US20030187003A1, “Pharmaceutical compositions and method for the treatment of retroviral infections” (priority 2000, published 2003).

In general, EC50 refers to the concentration giving half of the maximal effect. What is called IC50 is the concentration that gives 50% inhibition.

Some results are limits rather than exact numbers.

Assay [1] relates to HIV-1-derived vectors pseudotyped with the VSV-G envelope. Nature of the assay: microbe, parasite or virus in culture. As to conditions: Human immunodeficiency virus 1, HEK-293T, read-out: EC50 inhibition of transduction. The class given is cell-based.
Assay [2] addresses T1, Recombinant HIV-1 RT (HXB2) (Human immunodeficiency virus type 1 group M subtype B, UniProt P04585).
T1 construct: Recombinant HIV-1 RT (HXB2) was obtained as described by Jonckheere et al; made in house
Nature of the assay: inhibition of HIV-1 reverse transcriptase enzymatic activity. The format is biochemical. From the text:
Poly(rC).oligo(dG) and poly (rA).oligo(dT) were used as template-primers, and 8-[^3H]-dGTP and [^3H]-dTTP were used as radiolabelled substrates.

For assay [3], the system named is HIV-1 L2. The class given is cell-based.
Assay [4] has as its system HIV-1 strains L2, L4 and L6. As to the kind of experiment: antiviral activity against multi-drug resistant (MddNR) HIV-1 strains. The settings on record: strains L2, L4 and L6 versus parental strain L1. The format is cell-based.
For assay [5], the system named is HIV-1 NL43/DS5000. Nature of the assay: microbe, parasite or virus in culture. The format is cell-based.
For assay [6], the system named is HIV-1. As to the kind of experiment: combined inhibitory effect on HIV-1-induced cytopathic effect, isobologram method. The format is cell-based. The settings on record: combination with nevirapine, MT-4 cells, FIG. 4. The procedure:
The antiviral effect of compound H was tested in combination with the nucleoside reverse transcriptase inhibitor zidovudine, the non-nucleoside reverse transcriptase inhibitor nevirapine and the protease inhibitor nelfinavir.
The combined inhibitory effect on HIV-1-induced cytopathic effect was evaluated by the isobologram method, as previously described by Elion et al. in J. Biol. Chem. (1954) 208:477-488 and by Baba et al. in Antimicrob. Agents Chemother. (1984) 25:515-517.
EC50, as defined herein before, was used for calculating the fractional inhibitory concentration (hereinafter referred as FIC). When the minimum FIC index corresponding to the FIC of combined compounds (e.g., FICx+FICy) is equal to 1.0, the combination is said to be additive; when it is beween 1.0 and 0.5, the combination is by definition said to be subsynergistic, and when it is <0.5, the combination is by definition said to be synergistic. When the minimum FIC index is between 1.0 and 2.0, the combination is said to be subantagonistic and, when it is >2.0, the combination is defined as antagonistic.
(In general: Cytopathic effects are the visible damage that an infection or toxin causes in cultured cells.)

Assay [7] concerns HIV-1 (NDK, NL4.3 and L1), HIV-2 (ROD and EHO) and SIV (MAC251). As to the kind of experiment: antiviral activity against several HIV and SIV strains. The format is cell-based. The settings on record: range over HIV-1 (NDK, NL4.3 and L1).

`O=[N+]([O-])c1ccc(C2c3c(O)nc(S)nc3Oc3nc(S)nc(O)c32)cc1` [compound H, 5-(4-nitrophenyl)-2,8-dithiol-4,6-dihydroxy-5H-pyrano[2,3-d:6,5-d′]dipyrimidine]: the EC50 is 17 µM in assay [1]; 6 ± 2.3 µM in assay [3] (Human immunodeficiency virus 1); 19.4 ± 1.4 µM in assay [5] (Human immunodeficiency virus 1, NL43); 5.5 to 30 µM in assay [7]. Further, the IC50 in assay [2] (IC50 Poly(A).oligo(dT), template-primer poly(A).oligo(dT)) amounted to 24.6 ± 7.2 µM; in assay [2] (IC50 poly(C).oligo(dG), template-primer poly(C).oligo(dG)), 4.8 ± 2.2 µM. The results for the “fold increase in EC50” value in assay [3] (L2 versus wild type strain L1) and in assay [5] (NL43/DS5000 versus wild type strain NL4.3) were 1.6 and 1.3, respectively. Besides, in assay [4], the “reduction in inhibitory potency” value is listed as not above 3 fold. In addition, the “activity against HIV-1 strain resistant to dextran sulfate” value in assay [5] (in words) is on record as “active”. Besides, in assay [6], the “added values FICnevirapine+FICV-165” value is reported as “below 0.5”.
